In one assay the test system is MCF7. Nature of the assay: cells. The format is functional, cell-based. To be noted: Homo sapiens, MCF7, 144 h.
The next assay deals with MDA-MB-231. Nature of the assay: cells. The format is functional, cell-based. The conditions noted are these: Homo sapiens, MDA-MB-231, 144 h.
For a further assay, the system named is HT-29. Kind of assay: cells. The format is functional, cell-based. The conditions noted are these: Homo sapiens, HT-29, 144 h.
The subject of assay [1] is Mus musculus. Kind of assay: Antiinflammatory activity in overnight fasted Kunming mouse assessed as inhibition of xylene-induced ear swelling at 4 mg/kg, ip administered before challenge for 5 days measured 1 hr post xylene challenge. The conditions noted are these: route intraperitoneal. The format is functional.
The target in assay [2] is T1, Prostaglandin G/H synthase 1 (Ovis aries) (UniProt P05979).
T1 sequence (whole entry): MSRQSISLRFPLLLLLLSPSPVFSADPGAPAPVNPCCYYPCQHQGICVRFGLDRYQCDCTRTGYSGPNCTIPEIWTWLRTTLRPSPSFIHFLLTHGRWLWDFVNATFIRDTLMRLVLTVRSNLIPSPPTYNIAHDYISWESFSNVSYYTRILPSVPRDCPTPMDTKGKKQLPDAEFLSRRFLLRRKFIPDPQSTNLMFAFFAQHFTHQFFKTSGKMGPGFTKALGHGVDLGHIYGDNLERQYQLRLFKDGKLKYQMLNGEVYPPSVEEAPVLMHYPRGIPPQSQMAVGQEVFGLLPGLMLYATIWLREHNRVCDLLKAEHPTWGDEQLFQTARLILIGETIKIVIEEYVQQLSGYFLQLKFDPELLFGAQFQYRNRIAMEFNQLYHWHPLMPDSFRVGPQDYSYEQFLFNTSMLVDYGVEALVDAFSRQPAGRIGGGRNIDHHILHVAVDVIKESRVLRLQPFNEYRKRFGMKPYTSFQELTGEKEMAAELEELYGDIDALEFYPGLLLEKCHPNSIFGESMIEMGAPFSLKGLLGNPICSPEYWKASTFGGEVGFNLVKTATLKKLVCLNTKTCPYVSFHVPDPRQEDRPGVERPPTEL
Nature of the assay: Inhibition of ovine COX1 at 10 uM by ELISA. Background: ELISA stands for enzyme-linked immunosorbent assay.

Assay [3] deals with Mus musculus. Kind of assay: Antiinflammatory activity in overnight fasted Kunming mouse assessed as inhibition of xylene-induced ear swelling at 30 mg/kg, ip administered before challenge for 5 days measured 1 hr post xylene challenge. In kind it is functional. The conditions noted are these: route intraperitoneal.

In general, IC50 refers to the concentration that inhibits the measured activity by half. What is called inhibition in vivo is the drop in the measured response relative to a control, in per cent. The inhibition is how much of the control response was suppressed.

Description for HT-29: Antiproliferative activity against human HT-29 cells assessed as growth inhibition after 144 hrs by crystal violet staining method
Description for MCF7: Antiproliferative activity against human MCF7 cells assessed as growth inhibition after 144 hrs by crystal violet staining method
Description for MDA-MB-231: Antiproliferative activity against human MDA-MB-231 cells assessed as growth inhibition after 144 hrs by crystal violet staining method

Take `Cc1ccccc1NC(=S)N1CCC(=C2c3ccc(Cl)cc3CCc3cccnc32)CC1`: the values for the 50% inhibitory concentration (IC50) in the assay with MCF7, with MDA-MB-231 and in the assay on HT-29 were 5.4 µM, 4.7 µM and 6.6 µM, respectively. Besides, in the assay with Mus musculus [1], the inhibition in vivo at 4 mg/kg was 13%.
For the compound `O=c1[nH]cc(F)c(=O)[nH]1` [FLUOROURACIL], the concentration for half-maximal inhibition (IC50) in the assay with MCF7 came to 4.7 µM.
Regarding `S=C(NC1CCCCC1)N1CCC(=C2c3ccc(Cl)cc3CCc3cccnc32)CC1`, in assay [2], the inhibition turned out to be 11.6%. Also, the half-inhibitory concentration (IC50) was found to be 5.1 µM with MCF7, 8.1 µM with MDA-MB-231 and 6.2 µM in the assay on HT-29. Moreover, in the assay on Mus musculus [1], the inhibition in vivo at 4 mg/kg came to 30.4%.
As to `S=C(Nc1ccccc1)N1CCC(=C2c3ccc(Cl)cc3CCc3cccnc32)CC1`, the results for the 50% inhibitory concentration (IC50) in the assay with MCF7, in the assay on MDA-MB-231 and in the assay with HT-29 were 5.6 µM, 6.4 µM and 6.7 µM, respectively. The inhibition in vivo at 4 mg/kg with Mus musculus [1] amounted to 21.7%.
Taken in the same sequence, the figures for `CNC(=S)N1CCC(=C2c3ccc(Cl)cc3CCc3cccnc32)CC1` were 9.4 µM, 7.1 µM, 9.6 µM and 26.1%.
Taken in the same sequence, the figures for `COc1ccccc1NC(=S)N1CCC(=C2c3ccc(Cl)cc3CCc3cccnc32)CC1` were 7.6 µM, 10.4 µM, 9.2 µM and 21.7%.
`CC(=O)Oc1ccccc1C(=O)O`: in assay [2], the inhibition worked out at 29%.
`CC(C)Cc1ccc(C(C)C(=O)O)cc1` (stereo not drawn) [IBUPROFEN]: the inhibition in vivo at 30 mg/kg in the assay with Mus musculus [3] was determined as 39.1%. Further, the inhibition in vivo at 4 mg/kg with Mus musculus [1] worked out at 8.69%.
Consider `CCOC(=O)N1CCC(=C2c3ccc(Cl)cc3CCc3cccnc32)CC1` [LORATADINE], for which the values for the half-maximal inhibitory concentration (IC50) with MCF7, in the assay on MDA-MB-231 and in the assay with HT-29 were 7.5 µM, 8.4 µM and 6.2 µM, respectively.
